Columns and labels:
[1] = target: T1, hRIPK1 (aa 1-375) fusion protein (Homo sapiens, UniProt Q13546); assay: ADP-Glo kinase assay: catalytic activity of RIPK1 (autophosphorylation, conversion of ATP to ADP); type: biochemical
T1 construct: hRIPK1 (aa 1-375) fusion protein
T1 sequence (Q13546 1-375): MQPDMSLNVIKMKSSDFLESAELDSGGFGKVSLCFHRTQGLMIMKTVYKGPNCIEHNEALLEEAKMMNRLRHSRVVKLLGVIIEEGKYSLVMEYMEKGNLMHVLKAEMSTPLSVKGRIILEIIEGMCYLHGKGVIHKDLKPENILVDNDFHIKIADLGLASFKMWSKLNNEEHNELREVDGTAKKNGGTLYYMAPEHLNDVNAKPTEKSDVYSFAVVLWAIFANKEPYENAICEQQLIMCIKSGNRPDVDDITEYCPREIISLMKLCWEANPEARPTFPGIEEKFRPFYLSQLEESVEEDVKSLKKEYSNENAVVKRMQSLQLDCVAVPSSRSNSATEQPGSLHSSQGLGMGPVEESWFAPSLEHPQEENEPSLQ
How it was run: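 The readout was ADP-Glo luminescence after a 240 min rt autophosphorylation reaction with 50 μM ATP, following 30 min preincubation of 3.6 μg/ml hRIPK1 (aa 1-375) fusion with compound at 33300-1.69 nM final in 1% DMSO. Values came from Levenberg-Marquardt nonlinear fits.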

U937 cells = assay: Cellular assay in U937 cells: activity of RIPK1 inhibitors on TNFα/zVAD.fmk-induced cell death (necroptosis), CellTiter 96 AQueous (MTS) readout; type: cell-based; conditions: Homo sapiens, U-937
How it was run: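 Necroptosis was measured by viable-cell MTS reduction (4 h, absorbance 490 nm) after overnight (18–24 h) 37° C culture. Cell suspensions of U937 cells carried TNFα (100 ng/ml) plus zVAD.fmk (50 μM) before compound was added. A 10-point curve (10 μM–0.26 nM or 1 μM–0.07 nM) was run in duplicate, normalised to the control lacking TNFα/zVAD.fmk.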

IC50 [1]	SMILES	IC50 (U937 cells)
22 nM	Cc1nc2ccc(C[C@H]3CC[C@H](C(=O)N4OCC[C@H]4c4cc(F)cc(C#N)c4)CC3)cn2n1 [compound 221, trans-3-fluoro-5-[(3S)-2-[4-[(2-methyl-[1,2,4]triazolo[1,5-a]pyridin-6-yl)methyl]cyclohexanecarbonyl]isoxazolidin-3-yl]benzonitrile]	19 nM
11 nM	CNC(=O)c1ccc(F)c(C[C@H]2CC[C@H](C(=O)N3OCC[C@H]3c3cc(F)cc(C#N)c3)CC2)c1 [compound 177, trans-3-[[4-[(3S)-3-(3-cyano-5-fluoro-phenyl)isoxazolidine-2-carbonyl]cyclohexyl]methyl]-4-fluoro-N-methyl-benzamide]	5 nM
18 nM	Cc1nn(C[C@H]2CC[C@H](C(=O)N3OCC[C@H]3c3cc(F)cc(F)c3)CC2)c2cc(C#N)cc(F)c12 [compound 101, trans-1-((4-((S)-3-(3,5-difluorophenyl)isoxazolidine-2-carbonyl)cyclohexyl)methyl)-4-fluoro-3-methyl-1H-indazole-6-carbonitrile]	4 nM
8 nM	Cc1c(C#N)cncc1C[C@H]1CC[C@H](C(=O)N2OCC[C@H]2c2cc(F)cc(F)c2)CC1 [compound 275, trans-5-[[4-[(3S)-3-(3,5-difluorophenyl)isoxazolidine-2-carbonyl]cyclohexyl]methyl]-4-methyl-pyridine-3-carbonitrile]	9 nM
44 nM	Cc1cnc([C@@H]2CCON2C(=O)[C@H]2CC[C@H](Cc3ccnn3C)CC2)cn1 [compound 395, trans-[(3S)-3-(5-methylpyrazin-2-yl)-1,2-oxazolidin-2-yl]-[4-[(2-methylpyrazol-3-yl)methyl]cyclohexyl]methanone]	45 nM
32 nM	COc1cncc([C@@H]2CCON2C(=O)[C@H]2CC[C@H](Cn3ccc4ncc(C#N)cc43)CC2)n1 [compound 185, trans-1-[[4-[(3S)-3-(6-methoxypyrazin-2-yl)isoxazolidine-2-carbonyl]cyclohexyl]methyl]pyrrolo[3,2-b]pyridine-6-carbonitrile]	34 nM
52 nM	Cc1ncn(C[C@H]2CC[C@H](C(=O)N3OCC[C@H]3c3cc(F)cc(C#N)c3)CC2)c1C#N [compound 88, trans-1-((4-((S)-3-(3-cyano-5-fluorophenyl)isoxazolidine-2-carbonyl)cyclohexyl)methyl)-4-methyl-1H-imidazole-5-carbonitrile]	157 nM
19 nM	Cc1cc(C[C@H]2CC[C@H](C(=O)N3OCC[C@H]3c3cc(F)cc(C#N)c3)CC2)cn2c(C)nnc12 [compound 300, trans-3-[(3S)-2-[4-[(3,8-dimethyl-[1,2,4]triazolo[4,3-a]pyridin-6-yl)methyl]cyclohexanecarbonyl]-1,2-oxazolidin-3-yl]-5-fluorobenzonitrile]	13 nM
34 nM	Cc1nc2ccc(C[C@H]3CC[C@H](C(=O)N4OCC[C@H]4c4cncc(C#N)c4)CC3)cn2n1 [compound 262, trans-5-[(3S)-2-[4-[(2-methyl-[1,2,4]triazolo[1,5-a]pyridin-6-yl)methyl]cyclohexanecarbonyl]isoxazolidin-3-yl]pyridine-3-carbonitrile]	67 nM
21 nM	N#Cc1cnc2ccn(C[C@H]3CC[C@H](C(=O)N4OCC[C@H]4c4cc(F)cc(F)c4)CC3)c2c1 [compound 17, trans-1-((4-((S)-3-(3,5-difluorophenyl)isoxazolidine-2-carbonyl)cyclohexyl)methyl)-1H-pyrrolo[3,2-b]pyridine-6-carbonitrile]	2 nM
20 nM	Cn1nccc1-c1cc(F)cc(C[C@H]2CC[C@H](C(=O)N3OCC[C@H]3c3cc(F)cc(C#N)c3)CC2)c1 [compound 214, trans-3-fluoro-5-[(3S)-2-[4-[[3-fluoro-5-(2-methylpyrazol-3-yl)phenyl]methyl]cyclohexanecarbonyl]isoxazolidin-3-yl]benzonitrile]	4 nM
23 nM	Cc1nc2ccc(C[C@H]3CC[C@H](C(=O)N4OCC[C@H]4c4ccc(F)c(F)c4)CC3)cn2n1 [compound 261, trans-[(3S)-3-(3,4-difluorophenyl)isoxazolidin-2-yl]-[4-[(2-methyl-[1,2,4]triazolo[1,5-a]pyridin-6-yl)methyl]cyclohexyl]methanone]	17 nM
15 nM	Cc1nccn1-c1cc(F)cc(C[C@H]2CC[C@H](C(=O)N3OCC[C@H]3c3cc(F)cc(C#N)c3)CC2)c1 [compound 216, trans-3-fluoro-5-[(3S)-2-[4-[[3-fluoro-5-(2-methylimidazol-1-yl)phenyl]methyl]cyclohexanecarbonyl]isoxazolidin-3-yl]benzonitrile]	10 nM
22 nM	N#Cc1cnc2ccn(C[C@H]3CC[C@H](C(=O)N4OCC[C@H]4c4cncc(F)c4)CC3)c2c1 [compound 3, trans-1-((4-((S)-3-(5-fluoropyridin-3-yl)isoxazolidine-2-carbonyl)cyclohexyl)methyl)-1H-pyrrolo[3,2-b]pyridine-6-carbonitrile]	18 nM
14 nM	Cc1cncc([C@@H]2CCON2C(=O)[C@H]2CC[C@H](Cc3ccc(F)c(C(N)=O)c3)CC2)n1 [compound 299, trans-2-fluoro-5-[[4-[(3S)-3-(6-methylpyrazin-2-yl)isoxazolidine-2-carbonyl]cyclohexyl]methyl]benzamide]	19 nM
17 nM	Cc1cc(C[C@H]2CC[C@H](C(=O)N3OCC[C@H]3c3cncc(F)c3)CC2)cn2ncnc12 [compound 336, trans-[(3S)-3-(5-fluoropyridin-3-yl)-1,2-oxazolidin-2-yl]-[4-[(8-methyl-[1,2,4]triazolo[1,5-a]pyridin-6-yl)methyl]cyclohexyl]methanone]	10 nM
41 nM	Cn1nccc1C[C@H]1CC[C@H](C(=O)N2OCC[C@H]2c2cnccn2)CC1 [compound 238, trans-[4-[(2-methylpyrazol-3-yl)methyl]cyclohexyl]-[(3S)-3-pyrazin-2-ylisoxazolidin-2-yl]methanone]	257 nM
138 nM	COc1cncc([C@@H]2CCON2C(=O)[C@H]2CC[C@H](Cn3cc4ccc(C#N)cc4n3)CC2)n1 [compound 189, trans-2-[[4-[(3S)-3-(6-methoxypyrazin-2-yl)isoxazolidine-2-carbonyl]cyclohexyl]methyl]indazole-6-carbonitrile]	623 nM
5 nM	Cn1ncc2ncc(C[C@H]3CC[C@H](C(=O)N4OCC[C@H]4c4cc(F)cc(C#N)c4)CC3)cc21 [compound 296, trans-3-fluoro-5-[(3S)-2-[4-[(1-methylpyrazolo[4,3-b]pyridin-6-yl)methyl]cyclohexanecarbonyl]isoxazolidin-3-yl]benzonitrile]	2 nM
21 nM	N#Cc1cc2c(ccn2C[C@H]2CC[C@H](C(=O)N3OCC[C@H]3c3cc(F)cc(F)c3)CC2)cc1F [compound 23, trans-1-((4-((S)-3-(3,5-difluorophenyl)isoxazolidine-2-carbonyl)cyclohexyl)methyl)-5-fluoro-1H-indole-6-carbonitrile]	3 nM
37 nM	Cc1nc2ccc(C[C@H]3CC[C@H](C(=O)N4OCC[C@H]4c4cnccn4)CC3)cn2n1 [compound 222, trans-[4-[(2-methyl-[1,2,4]triazolo[1,5-a]pyridin-6-yl)methyl]cyclohexyl]-[(3S)-3-pyrazin-2-ylisoxazolidin-2-yl]methanone]	48 nM
10 nM	Cc1cn2ncc(C[C@H]3CC[C@H](C(=O)N4OCC[C@H]4c4cccc(F)c4)CC3)cc2n1 [compound 323, [2-fluoro-4-[(3S)-2-[4-[(2-methylimidazo[1,2-b]pyridazin-7-yl)methyl]cyclohexanecarbonyl]isoxazolidin-3-yl]phenyl]]	6 nM
19 nM	O=C([C@H]1CC[C@H](Cn2cnc3ccccc32)CC1)N1OCC[C@H]1c1cc(F)cc(F)c1 [compound 8, trans-(4-((1H-benzo[d]imidazol-1-yl)methyl)cyclohexyl)((S)-3-(3,5-difluorophenyl)isoxazolidin-2-yl)methanone]	6 nM
23 nM	Cc1nccn1-c1cc(F)cc(C[C@H]2CC[C@H](C(=O)N3OCC[C@H]3c3ccc(F)cc3)CC2)c1 [compound 207, trans-[4-[[3-fluoro-5-(2-methylimidazol-1-yl)phenyl]methyl]cyclohexyl]-[(3S)-3-(4-fluorophenyl)isoxazolidin-2-yl]methanone]	53 nM
46 nM	N#Cc1cncc([C@@H]2CCON2C(=O)[C@H]2CC[C@H](Cn3cnc4ccc(F)cc43)CC2)c1 [compound 106, trans-5-((S)-2-(4-((6-fluoro-1H-benzo[d]imidazol-1-yl)methyl)cyclohexane-1-carbonyl)isoxazolidin-3-yl)nicotinonitrile]	54 nM

Reference: US20260158009A1 (GENZYME CORPORATION, priority 2023, published 2026)
